# Laboratory results reported in patent EP4745135A1 (Gluetacs Therapeutics (Shanghai) Co., Ltd., priority 2023, dated 2025).
# Columns and labels:
# [1] = target: T1, human Cereblon WT GST-tagged protein (Homo sapiens, UniProt Q96SW2); test: CRBN-binding affinity, HTRF (CEREBLON BINDING kit); details: for inhibition at 0.5 µM: read-out: Inhibition Rate at 0.5 µM (%); for inhibition at 2 µM: read-out: Inhibition Rate at 2 µM (%); for IC50: CRBN binding, HTRF, 3 hours at room temperature, read-out: HTRF IC50
# T1 construct: purchased CISBIO 64BDCRBNPEH
# [2] = target: T2, WEE1 (Homo sapiens, UniProt P30291+Q96SW2); test: Western blot, degradation of substrate protein in hPBMCs; type: cell-based
# T2 construct: effects of the compounds of the present disclosure on the expression of target proteins in cells; endogenous in cells; host or cells: human PBMCs (Milecell Biotechnologies)
# [3] = target: T3, IKZF2 (Homo sapiens, UniProt Q96SW2+Q9UKS7); test: as above; type: cell-based
# T3 construct: effects of the compounds of the present disclosure on the expression of target proteins in cells; endogenous in cells; host or cells: human PBMCs (Milecell Biotechnologies)
# [4] = target: T4, IKZF3 (Homo sapiens, UniProt Q96SW2+Q9UKT9); test: as above; type: cell-based
# T4 construct: effects of the compounds of the present disclosure on the expression of target proteins in cells; endogenous in cells; host or cells: human PBMCs (Milecell Biotechnologies)
# [5] = target: T5, IKZF1 (Homo sapiens, UniProt Q13422+Q96SW2); test: as above; type: cell-based
# T5 construct: effects of the compounds of the present disclosure on the expression of target proteins in cells; endogenous in cells; host or cells: human PBMCs (Milecell Biotechnologies)
# [6] = target: T6, CK1α (Homo sapiens, UniProt P48729+Q96SW2); test: as above; type: cell-based
# T6 construct: effects of the compounds of the present disclosure on the expression of target proteins in cells; endogenous in cells; host or cells: human PBMCs (Milecell Biotechnologies)
# [7] = system: GSPT1; test: as above; type: cell-based, Human
# [8] = Western blot, 24 hours of compound treatment, compounds tested at 50 nM and 500 nM (concentration for the table not stated)
# [9] = 24 hours treatment, compounds at 50 nM and 500 nM (concentration behind the class not stated)
# T2 sequence (P30291 whole entry): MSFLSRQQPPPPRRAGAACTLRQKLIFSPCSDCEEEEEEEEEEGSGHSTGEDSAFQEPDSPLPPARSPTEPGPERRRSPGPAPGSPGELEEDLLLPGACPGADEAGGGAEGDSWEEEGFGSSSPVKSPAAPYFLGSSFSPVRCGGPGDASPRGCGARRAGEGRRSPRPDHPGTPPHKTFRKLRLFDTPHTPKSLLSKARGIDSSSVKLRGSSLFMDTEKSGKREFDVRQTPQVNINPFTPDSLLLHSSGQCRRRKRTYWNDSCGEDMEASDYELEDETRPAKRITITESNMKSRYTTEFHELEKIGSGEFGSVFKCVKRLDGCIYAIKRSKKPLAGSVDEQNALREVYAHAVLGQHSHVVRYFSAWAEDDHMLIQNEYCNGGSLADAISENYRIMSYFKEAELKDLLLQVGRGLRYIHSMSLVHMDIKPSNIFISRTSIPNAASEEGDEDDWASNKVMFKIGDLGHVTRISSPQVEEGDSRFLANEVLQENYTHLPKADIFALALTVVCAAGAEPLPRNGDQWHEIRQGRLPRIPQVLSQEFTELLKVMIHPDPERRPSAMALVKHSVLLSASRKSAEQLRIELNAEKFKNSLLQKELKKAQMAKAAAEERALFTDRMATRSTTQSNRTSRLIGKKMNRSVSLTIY
# T2 sequence (Q96SW2 whole entry): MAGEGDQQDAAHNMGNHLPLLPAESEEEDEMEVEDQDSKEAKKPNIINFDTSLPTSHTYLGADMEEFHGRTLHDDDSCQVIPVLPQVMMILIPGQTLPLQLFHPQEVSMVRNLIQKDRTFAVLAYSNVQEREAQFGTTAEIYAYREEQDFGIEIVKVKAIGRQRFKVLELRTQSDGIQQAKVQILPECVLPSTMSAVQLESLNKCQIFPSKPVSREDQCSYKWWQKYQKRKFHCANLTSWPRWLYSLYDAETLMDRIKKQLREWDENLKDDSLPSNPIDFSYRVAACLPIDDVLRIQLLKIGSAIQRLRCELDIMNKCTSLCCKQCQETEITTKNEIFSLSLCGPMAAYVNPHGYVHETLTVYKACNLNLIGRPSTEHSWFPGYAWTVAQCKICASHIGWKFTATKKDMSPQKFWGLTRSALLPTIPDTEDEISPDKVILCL
# T2 sequence (Q16531 whole entry partner): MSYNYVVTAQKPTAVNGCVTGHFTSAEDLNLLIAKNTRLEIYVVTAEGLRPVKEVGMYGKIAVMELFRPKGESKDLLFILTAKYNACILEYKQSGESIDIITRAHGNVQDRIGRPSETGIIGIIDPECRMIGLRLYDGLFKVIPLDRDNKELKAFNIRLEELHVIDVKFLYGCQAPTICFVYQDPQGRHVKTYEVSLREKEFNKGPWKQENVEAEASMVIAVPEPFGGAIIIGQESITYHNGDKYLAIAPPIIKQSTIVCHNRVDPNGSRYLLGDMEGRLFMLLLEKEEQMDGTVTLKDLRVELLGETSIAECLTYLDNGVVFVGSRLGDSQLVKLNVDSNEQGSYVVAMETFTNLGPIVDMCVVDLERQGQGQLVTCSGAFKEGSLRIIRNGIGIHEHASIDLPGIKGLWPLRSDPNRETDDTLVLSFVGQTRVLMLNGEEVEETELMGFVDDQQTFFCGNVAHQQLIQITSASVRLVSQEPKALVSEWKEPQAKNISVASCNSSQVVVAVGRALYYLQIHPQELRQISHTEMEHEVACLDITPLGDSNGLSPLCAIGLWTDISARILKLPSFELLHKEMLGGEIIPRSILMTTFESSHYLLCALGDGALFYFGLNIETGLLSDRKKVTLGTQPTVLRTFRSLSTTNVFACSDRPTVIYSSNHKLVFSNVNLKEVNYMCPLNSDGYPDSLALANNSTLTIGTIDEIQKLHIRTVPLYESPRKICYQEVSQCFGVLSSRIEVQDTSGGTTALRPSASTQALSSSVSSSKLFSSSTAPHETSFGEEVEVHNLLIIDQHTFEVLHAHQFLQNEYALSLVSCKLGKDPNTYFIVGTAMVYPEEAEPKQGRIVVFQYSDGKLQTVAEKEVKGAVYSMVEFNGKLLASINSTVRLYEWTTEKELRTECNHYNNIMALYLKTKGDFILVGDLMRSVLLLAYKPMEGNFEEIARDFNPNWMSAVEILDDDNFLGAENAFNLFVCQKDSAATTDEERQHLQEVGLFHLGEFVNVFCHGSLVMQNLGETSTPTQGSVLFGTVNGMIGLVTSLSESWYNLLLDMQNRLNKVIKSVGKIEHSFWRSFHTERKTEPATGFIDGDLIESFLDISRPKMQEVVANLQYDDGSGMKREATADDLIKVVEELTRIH
# T6 sequence (P48729 whole entry): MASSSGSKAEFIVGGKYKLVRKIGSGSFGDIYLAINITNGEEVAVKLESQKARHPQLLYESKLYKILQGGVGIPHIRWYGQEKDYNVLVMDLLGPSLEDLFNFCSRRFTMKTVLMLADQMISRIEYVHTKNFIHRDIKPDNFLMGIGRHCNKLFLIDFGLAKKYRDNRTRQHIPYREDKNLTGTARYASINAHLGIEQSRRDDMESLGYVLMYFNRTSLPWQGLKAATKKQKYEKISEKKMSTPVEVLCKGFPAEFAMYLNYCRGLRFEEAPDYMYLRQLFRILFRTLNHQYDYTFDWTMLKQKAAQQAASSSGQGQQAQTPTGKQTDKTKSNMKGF
# T6 sequence (Q96SW2 whole entry): as the sequence (Q96SW2 whole entry) above
# T6 sequence (Q16531 whole entry partner): as the sequence (Q16531 whole entry partner) above
# T4 sequence (Q9UKT9 whole entry): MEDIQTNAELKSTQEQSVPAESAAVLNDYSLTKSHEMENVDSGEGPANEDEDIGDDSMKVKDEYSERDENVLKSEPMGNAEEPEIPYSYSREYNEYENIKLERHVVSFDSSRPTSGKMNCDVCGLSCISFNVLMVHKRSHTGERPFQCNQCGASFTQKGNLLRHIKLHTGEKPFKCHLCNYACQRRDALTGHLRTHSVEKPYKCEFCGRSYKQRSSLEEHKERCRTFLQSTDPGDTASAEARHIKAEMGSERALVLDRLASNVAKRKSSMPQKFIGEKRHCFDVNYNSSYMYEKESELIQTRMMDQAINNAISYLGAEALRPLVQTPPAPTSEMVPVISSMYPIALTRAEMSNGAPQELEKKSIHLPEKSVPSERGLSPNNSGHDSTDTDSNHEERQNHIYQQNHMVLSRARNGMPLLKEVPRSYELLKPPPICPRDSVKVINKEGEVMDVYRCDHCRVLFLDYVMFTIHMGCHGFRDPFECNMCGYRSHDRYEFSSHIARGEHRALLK
# T4 sequence (Q96SW2 whole entry): as the sequence (Q96SW2 whole entry) above
# T4 sequence (Q16531 whole entry partner): as the sequence (Q16531 whole entry partner) above
# T5 sequence (Q13422 whole entry): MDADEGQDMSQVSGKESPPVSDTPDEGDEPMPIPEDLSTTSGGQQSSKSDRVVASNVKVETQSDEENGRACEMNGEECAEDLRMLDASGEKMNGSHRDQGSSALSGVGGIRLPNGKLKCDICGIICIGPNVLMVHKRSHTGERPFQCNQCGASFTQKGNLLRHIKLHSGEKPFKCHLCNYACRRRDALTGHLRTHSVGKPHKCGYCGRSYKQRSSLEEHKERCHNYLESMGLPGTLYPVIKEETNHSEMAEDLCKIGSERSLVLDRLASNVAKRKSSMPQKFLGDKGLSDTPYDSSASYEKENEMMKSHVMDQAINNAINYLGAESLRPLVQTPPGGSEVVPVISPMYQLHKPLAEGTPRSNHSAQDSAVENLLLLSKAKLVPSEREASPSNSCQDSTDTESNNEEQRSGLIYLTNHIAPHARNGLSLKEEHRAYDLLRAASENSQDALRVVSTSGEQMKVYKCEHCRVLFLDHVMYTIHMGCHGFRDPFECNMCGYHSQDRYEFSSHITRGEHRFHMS
# T5 sequence (Q96SW2 whole entry): as the sequence (Q96SW2 whole entry) above
# T5 sequence (Q16531 whole entry partner): as the sequence (Q16531 whole entry partner) above
# T1 sequence (Q96SW2 whole entry): as the sequence (Q96SW2 whole entry) above
# T3 sequence (Q9UKS7 whole entry): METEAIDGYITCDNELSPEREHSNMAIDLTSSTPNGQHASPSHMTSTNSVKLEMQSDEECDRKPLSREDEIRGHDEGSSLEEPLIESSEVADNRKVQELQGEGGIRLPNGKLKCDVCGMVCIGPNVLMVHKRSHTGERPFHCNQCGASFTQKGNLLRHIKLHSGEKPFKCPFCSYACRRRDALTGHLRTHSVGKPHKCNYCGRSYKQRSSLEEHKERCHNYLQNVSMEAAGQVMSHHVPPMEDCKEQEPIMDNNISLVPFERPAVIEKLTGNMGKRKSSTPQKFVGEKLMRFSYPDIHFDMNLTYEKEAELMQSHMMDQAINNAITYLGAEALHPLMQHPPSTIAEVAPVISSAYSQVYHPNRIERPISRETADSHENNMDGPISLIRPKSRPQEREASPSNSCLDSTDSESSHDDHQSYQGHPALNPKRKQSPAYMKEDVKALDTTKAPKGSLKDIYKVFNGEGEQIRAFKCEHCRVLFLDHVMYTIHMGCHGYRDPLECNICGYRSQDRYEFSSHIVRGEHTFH
# T3 sequence (Q96SW2 whole entry): as the sequence (Q96SW2 whole entry) above
# T3 sequence (Q16531 whole entry partner): as the sequence (Q16531 whole entry partner) above
Compound,inhibition at 0.5 µM [1] [%],inhibition at 2 µM [1] [%],IC50 [1] [nM],"Wee1 substrate protein remaining % [2, 8]","IKZF2 substrate protein remaining % [3, 8]","IKZF3 substrate protein remaining % [4, 8]","IKZF 1 substrate protein remaining % [5, 8]","CK1α substrate protein remaining % [6, 8]","GSPT1 substrate protein remaining % [7, 8]","Wee1 substrate protein remaining % [2, 9]","IKZF2 substrate protein remaining % [3, 9]","IKZF3 substrate protein remaining % [4, 9]","IKZF 1 substrate protein remaining % [5, 9]","CK1α substrate protein remaining % [6, 9]","GSPT1 substrate protein remaining % [7, 9]"
"O=C1CCC(N2Cc3ccccc3C2=S)C(=O)N1 (stereo not shown) [GT-05563, 3-(1-thioxoisoindolin-2-yl)piperidine-2,6-dione]",–,–,< 100,–,–,–,–,–,–,A (0% ≤ substrate protein remaining % ≤ 80%),A (0% ≤ substrate protein remaining % ≤ 80%),A (0% ≤ substrate protein remaining % ≤ 80%),A (0% ≤ substrate protein remaining % ≤ 80%),B (80%< substrate protein remaining %≤ 100%),B (80%< substrate protein remaining %≤ 100%)
"CC1(C)CCC(CN2C3CC2CN(Cc2ccc4c(c2)CN(C2CCC(=O)NC2=O)C4=S)C3)=C(c2ccc(Cl)cc2)C1 (stereo not shown) [GT-08161, 3-(5-((6-((4'-chloro-5,5-dimethyl-3,4,5,6-tetrahydro-[1,1'-biphenyl]-2-yl)methyl)-3,6-diazabicyclo[3.1.1]heptan-3-yl)methyl)-1-thioxoisoindolin-2-yl)piperidine-2,6-dione]",40 to 53,80 to 100,–,–,–,–,–,–,–,A (0% ≤ substrate protein remaining % ≤ 80%),A (0% ≤ substrate protein remaining % ≤ 80%),A (0% ≤ substrate protein remaining % ≤ 80%),B (80%< substrate protein remaining %≤ 100%),B (80%< substrate protein remaining %≤ 100%),A (0% ≤ substrate protein remaining % ≤ 80%)
"O=C1CCC(N2Cc3c(CN4CCC(c5ccnc(Cl)c5Cl)CC4)cccc3C2=S)C(=O)N1 (stereo not shown) [GT-08458, 3-(4-((4-(2,3-dichloropyridin-4-yl)piperidin-1-yl)methyl)-1-thioxoisoindolin-2-yl)piperidine-2,6-dione]",53 to 60,80 to 100,–,A (0% ≤ substrate protein remaining % ≤ 80%),B (80%< substrate protein remaining %≤ 100%),B (80%< substrate protein remaining %≤ 100%),B (80%< substrate protein remaining %≤ 100%),B (80%< substrate protein remaining %≤ 100%),B (80%< substrate protein remaining %≤ 100%),–,–,–,–,–,–
"Cc1sc2ncnc(N3CCN(Cc4cccc5c4CN(C4CCC(=O)NC4=O)C5=S)CC3)c2c1C (stereo not shown) [GT-08916, 3-(4-((4-(5,6-dimethylthieno[2,3-d]pyrimidin-4-yl)piperazin-1-yl)methyl)-1-thioxoisoindolin-2-yl)piperidine-2,6-dione]",40 to 53,80 to 100,–,–,–,–,–,–,–,A (0% ≤ substrate protein remaining % ≤ 80%),B (80%< substrate protein remaining %≤ 100%),B (80%< substrate protein remaining %≤ 100%),B (80%< substrate protein remaining %≤ 100%),B (80%< substrate protein remaining %≤ 100%),A (0% ≤ substrate protein remaining % ≤ 80%)
"O=C1CCC(N2Cc3c(CN4CCc5sccc5C4)cccc3C2=S)C(=O)N1 (stereo not shown) [GT-08333, 3-(4-((6,7-dihydrothieno[3,2-c]pyridin-5(4H)-yl)methyl)-1-thioxoisoindolin-2-yl)piperidine-2,6-dione]",60 to 80,80 to 100,–,–,–,–,–,–,–,A (0% ≤ substrate protein remaining % ≤ 80%),B (80%< substrate protein remaining %≤ 100%),B (80%< substrate protein remaining %≤ 100%),B (80%< substrate protein remaining %≤ 100%),A (0% ≤ substrate protein remaining % ≤ 80%),A (0% ≤ substrate protein remaining % ≤ 80%)
"O=C1CCC(N2Cc3cc(CN4CCN(CC5=C(c6ccc(F)cc6)CCCC5)CC4)ccc3C2=S)C(=O)N1 (stereo not shown) [GT-08164, 3-(5-((4-((4'-fluoro-3,4,5,6-tetrahydro-[1,1'-biphenyl]-2-yl)methyl)piperazin-1-yl)methyl)-1-thioxoisoindolin-2-yl)piperidine-2,6-dione]",40 to 53,80 to 100,–,–,–,–,–,–,–,A (0% ≤ substrate protein remaining % ≤ 80%),A (0% ≤ substrate protein remaining % ≤ 80%),A (0% ≤ substrate protein remaining % ≤ 80%),A (0% ≤ substrate protein remaining % ≤ 80%),B (80%< substrate protein remaining %≤ 100%),A (0% ≤ substrate protein remaining % ≤ 80%)
"O=C1CCC(N2Cc3cc(CO)ccc3C2=S)C(=O)N1 (stereo not shown) [GT-06977, 3-(5-(hydroxymethyl)-1-thioxoisoindolin-2-yl)piperidine-2,6-dione]",–,–,< 100,–,–,–,–,–,–,A (0% ≤ substrate protein remaining % ≤ 80%),B (80%< substrate protein remaining %≤ 100%),A (0% ≤ substrate protein remaining % ≤ 80%),B (80%< substrate protein remaining %≤ 100%),B (80%< substrate protein remaining %≤ 100%),B (80%< substrate protein remaining %≤ 100%)

# Second part, led by results:
inhibition at 0.5 µM [1] [%],inhibition at 2 µM [1] [%],IC50 [1] [nM],Compound,"Wee1 substrate protein remaining % [2, 8]","IKZF2 substrate protein remaining % [3, 8]","IKZF3 substrate protein remaining % [4, 8]","IKZF 1 substrate protein remaining % [5, 8]","CK1α substrate protein remaining % [6, 8]","GSPT1 substrate protein remaining % [7, 8]","Wee1 substrate protein remaining % [2, 9]","IKZF2 substrate protein remaining % [3, 9]","IKZF3 substrate protein remaining % [4, 9]","IKZF 1 substrate protein remaining % [5, 9]","CK1α substrate protein remaining % [6, 9]","GSPT1 substrate protein remaining % [7, 9]"
60 to 80,80 to 100,–,"O=C1CCC(N2Cc3cc(CN4CCN(c5nccc(I)c5F)CC4)ccc3C2=S)C(=O)N1 (stereo not shown) [GT-09227, 3-(5-((4-(3-fluoro-4-iodopyridin-2-yl)piperazin-1-yl)methyl)-1-thioxoisoindolin-2-yl)piperidine-2,6-dione]",B (80%< substrate protein remaining %≤ 100%),B (80%< substrate protein remaining %≤ 100%),B (80%< substrate protein remaining %≤ 100%),B (80%< substrate protein remaining %≤ 100%),A (0% ≤ substrate protein remaining % ≤ 80%),A (0% ≤ substrate protein remaining % ≤ 80%),–,–,–,–,–,–
60 to 80,80 to 100,–,"O=C1CCC(N2Cc3cc(CN4CCN(c5ccccn5)CC4)ccc3C2=S)C(=O)N1 (stereo not shown) [GT-09216, 3-(5-((4-(pyridin-2-yl)piperazin-1-yl)methyl)-1-thioxoisoindolin-2-yl)piperidine-2,6-dione]",B (80%< substrate protein remaining %≤ 100%),B (80%< substrate protein remaining %≤ 100%),B (80%< substrate protein remaining %≤ 100%),B (80%< substrate protein remaining %≤ 100%),B (80%< substrate protein remaining %≤ 100%),A (0% ≤ substrate protein remaining % ≤ 80%),–,–,–,–,–,–
60 to 80,80 to 100,–,"Cc1nc(N2CCN(Cc3cccc4c3CN(C3CCC(=O)NC3=O)C4=S)CC2)c2ccsc2n1 (stereo not shown) [GT-08922, 3-(4-((4-(2-methylthieno[2,3-d]pyrimidin-4-yl)piperazin-1-yl)methyl)-1-thioxoisoindolin-2-yl)piperidine-2,6-dione]",–,–,–,–,–,–,A (0% ≤ substrate protein remaining % ≤ 80%),B (80%< substrate protein remaining %≤ 100%),B (80%< substrate protein remaining %≤ 100%),B (80%< substrate protein remaining %≤ 100%),B (80%< substrate protein remaining %≤ 100%),B (80%< substrate protein remaining %≤ 100%)
60 to 80,80 to 100,–,"Cc1nc(C2CCN(Cc3ccc4c(c3)CN(C3CCC(=O)NC3=O)C4=S)CC2)c2ccsc2n1 (stereo not shown) [GT-09309, 3-(5-((4-(2-methylthieno[2,3-d]pyrimidin-4-yl)piperidin-1-yl)methyl)-1-thioxoisoindolin-2-yl)piperidine-2,6-dione]",–,–,–,–,–,–,B (80%< substrate protein remaining %≤ 100%),B (80%< substrate protein remaining %≤ 100%),B (80%< substrate protein remaining %≤ 100%),B (80%< substrate protein remaining %≤ 100%),B (80%< substrate protein remaining %≤ 100%),A (0% ≤ substrate protein remaining % ≤ 80%)
53 to 60,80 to 100,–,"O=C1CCC(N2Cc3cc(CN4CCC(c5ccc(F)cc5)CC4)ccc3C2=S)C(=O)N1 (stereo not shown) [GT-08621, 3-(5-((4-(4-fluorophenyl)piperidin-1-yl)methyl)-1-thioxoisoindolin-2-yl)piperidine-2,6-dione]",B (80%< substrate protein remaining %≤ 100%),A (0% ≤ substrate protein remaining % ≤ 80%),B (80%< substrate protein remaining %≤ 100%),B (80%< substrate protein remaining %≤ 100%),B (80%< substrate protein remaining %≤ 100%),A (0% ≤ substrate protein remaining % ≤ 80%),–,–,–,–,–,–
